Laboratory results: patent publication US5428016A, “Antimicrobial peptide and antimicrobial agent” (Morinaga Milk Industry Co., Ltd., priority 1991, dated 1995)
Where no end group is shown, it is not given here.

Tests used:
Assay type in all cases: cell-based
[1] = test system: Listeria monocytogenes IDF 1b; settings: 17 h
Protocol: (§1) The antimicrobial peptides (samples Nos. 1 to 15) were prepared using the same methods as in Examples 1 to 15, and antimicrobial peptide derivatives (samples Nos. 16 to 18) were prepared using the same methods as in Examples 16 to 18, and were sterilized by filtration using a 0.45 μm Millex filter prior to use.
(§2) Various microbial strains shown in Table 4 in the logarithmic phase of growth were inoculated in a peptone medium which consisted of 1% Bactopeptone (manufactured by Difco Laboratory Co.) at a cell concentration of 10^6 /ml, and 160 μl thereof were incubated for 17 hours at 37° C. (or 30° C.) using a 96-hole microtiter plate (manufactured by Falcon Co.). Each sample was added to each medium at a ratio of 0, 1.5, 3, 6, 12, 25, 50, 100, 125 or 250 μM. The growth of the various microorganisms in the various samples at various concentrations was studied by measuring the light absorption at 660 nm.
(§3) The microorganisms used in this experiment are available from The Medical School Laboratories of Tokyo University (IID), Japanese Physicochemical Laboratories (JCM), Japanese International Dairy Federation (IDF), and the storage at the laboratory of the applicant (MMI).

[2] = test system: Staphylococcus aureus JCM 2151; settings: JCM 2151, 17 h
Protocol: as §1, §2, §3

[3] = test system: Pseudomonas aeruginosa MMI 603; settings: MMI 603, 17 h
Protocol: as §1, §2, §3

[4] = test system: Klebsiella pneumoniae JCM 1662 T; settings: JCM 1662, 17 h
Protocol: as §1, §2, §3

[5] = test system: Escherichia coli IID 861
Protocol: as §1, §2, §3

[6] = test system: Escherichia coli MMI 0111; test: Antimicrobial spectrum, minimum inhibitory concentration
Protocol: as §1, §2, §3

KRNMRK [Sample No. 9, Lys-Arg-Asn-Met-Arg-Lys]
minimum inhibitory concentration (MIC) [1]: up to 100 μM | minimum inhibitory concentration (MIC) [2]: up to 100 μM

KSRRRQWRMKK [Sample No. 12, Lys-Ser-Arg-Arg-Arg-Gln-Trp-Arg-Met-Lys-Lys]
minimum inhibitory concentration (MIC) [1]: up to 12 μM | minimum inhibitory concentration (MIC) [2]: up to 12 μM | minimum inhibitory concentration (MIC) [3]: up to 50 μM | minimum inhibitory concentration (MIC) [4]: up to 50 μM

KTFQWQRNMRK [Sample No. 14, Lys-Thr-Phe-Gln-Trp-Gln-Arg-Asn-Met-Arg-Lys]
minimum inhibitory concentration (MIC) [1]: up to 12 μM | minimum inhibitory concentration (MIC) [2]: up to 12 μM | minimum inhibitory concentration (MIC) [3]: up to 50 μM | minimum inhibitory concentration (MIC) [4]: up to 50 μM

KTLRWQNEMRK [Sample No. 15, Lys-Thr-Leu-Arg-Trp-Gln-Asn-Glu-Met-Arg-Lys]
minimum inhibitory concentration (MIC) [1]: up to 12 μM | minimum inhibitory concentration (MIC) [2]: up to 12 μM | minimum inhibitory concentration (MIC) [3]: up to 50 μM | minimum inhibitory concentration (MIC) [4]: up to 50 μM

KTRRWQWRMKK [Sample No. 11, Lys-Thr-Arg-Arg-Trp-Gln-Trp-Arg-Met-Lys-Lys]
minimum inhibitory concentration (MIC) [1]: up to 12 μM | minimum inhibitory concentration (MIC) [2]: up to 12 μM | minimum inhibitory concentration (MIC) [3]: up to 50 μM | minimum inhibitory concentration (MIC) [4]: up to 50 μM

KTRRWQWRMKK-NH2 [Sample No. 18, Lys-Thr-Arg-Arg-Trp-Gln-Trp-Arg-Met-Lys-Lys-NH2]
minimum inhibitory concentration (MIC) [5]: 3 µM | minimum inhibitory concentration (MIC) [6]: 6 µM

KTVSWQTYMKK [Sample No. 13, Lys-Thr-Val-Ser-Trp-Gln-Thr-Tyr-Met-Lys-Lys]
minimum inhibitory concentration (MIC) [1]: up to 12 μM | minimum inhibitory concentration (MIC) [2]: up to 12 μM | minimum inhibitory concentration (MIC) [3]: up to 50 μM | minimum inhibitory concentration (MIC) [4]: up to 50 μM

KTVSWR [Sample No. 8, Lys-Thr-Val-Ser-Trp-Arg]
minimum inhibitory concentration (MIC) [1]: up to 100 μM | minimum inhibitory concentration (MIC) [2]: up to 100 μM

RRRQWR [Sample No. 7, Arg-Arg-Arg-Gln-Trp-Arg]
minimum inhibitory concentration (MIC) [1]: up to 100 μM | minimum inhibitory concentration (MIC) [2]: up to 100 μM

RRWQWR [Sample No. 6, Arg-Arg-Trp-Gln-Trp-Arg]
minimum inhibitory concentration (MIC) [1]: up to 100 μM | minimum inhibitory concentration (MIC) [2]: up to 100 μM

RWQEMK [Sample No. 10, Arg-Trp-Gln-Glu-Met-Lys]
minimum inhibitory concentration (MIC) [1]: up to 100 μM | minimum inhibitory concentration (MIC) [2]: up to 100 μM
